Reference: US20230190690A1, “[…] AND/OR […] FOR CORONAVIRUS DISEASE 2019 (COVID-19)” (NEOPHARMA JAPAN CO., LTD., priority 2020, published 2023)
Read-outs that look alike come from different tables or passages of the source.

How the values were obtained:
[1] = tested on: SARS-CoV-2; assay: microbe, parasite or virus in culture; format: cell-based, SARS-CoV-2 (Caco-2, human colon cancer cells)
[2] = tested on: coronavirus disease 2019 (COVID-19); assay: Treatment example: intake of supplement capsules by a patient with COVID-19 symptoms; format: in vivo, human; settings: 1 patient; intake of capsules over two days
[3] = tested on: SARS-CoV-2; assay: microbe, parasite or virus in culture; format: cell-based, SARS-CoV-2 (VeroE6, African green monkey kidney cells)
[4] = tested on: VeroE6 cells, Caco-2 cells; assay: Cytotoxic effect in VeroE6 and Caco-2 cells; format: cell-based; settings: all concentration ranges tested (up to 2000 uM)
Method: In order to confirm the dose dependence in the inhibitory effect on SARS-CoV-2 infection and/or proliferation, the agents at each concentration were tested.

Row | Compound | SARS-CoV-2 infection and/or proliferation [1] | IC50 ([1]; Severe acute respiratory syndrome coronavirus 2, Caco-2 cells, FIG. 6, read-out: IC50 of inhibition of SARS-CoV-2 infection and/or proliferation) [µM] | various symptoms of coronavirus disease 2019 (COVID-19) [2] | IC50 ([3]; Severe acute respiratory syndrome coronavirus 2, Vero C1008, VeroE6 cells, FIG. 5, read-out: IC50 of inhibition of SARS-CoV-2 infection and/or proliferation) [µM] | infection with SARS-CoV-2 ([3]; VeroE6, number of seeded cells 1×10^4 cells/well) | cytotoxicity [4] | inhibitory effect on SARS-CoV-2 infection and/or proliferation, dose dependence ([3]; VeroE6 cells, FIG. 5)
1 | NCC(=O)CCC(=O)O [5-ALA, 5-aminolevulinic acid] | strongly inhibited | 39 | remarkably improved | 570 | significantly inhibited | did not show significant cytotoxicity | 
2 | sodium ferrous citrate [SFC] |  |  |  |  |  |  | no inhibitory effect
